For 4 compounds, MIC results are on record in patent EP0066373A1, “Beta-lactam derivatives, a process for their preparation and compositions containing them” (BEECHAM GROUP PLC, priority 1981, dated 1982).

Format in all cases: cell-based
The subject of experiment [1] is E. coli NCTC 10418. The experiment is described as follows: Antibacterial activity (MIC). As to conditions: Escherichia coli.
For experiment [2], the system named is P. mirabilis C 977. Kind of experiment: Antibacterial activity (MIC). To be noted: Proteus mirabilis, C977, Agar.
Experiment [3] relates to Ps. aeruginosa Dalgleish 10^-2. Kind of experiment: Antibacterial activity (MIC), 10^-2. To be noted: Pseudomonas aeruginosa, Agar.
Experiment [4] deals with Ps. aeurginosa NCTC 10662. Kind of experiment: Antibacterial activity (MIC).
The test system of experiment [5] is E. cloacae N1. The experiment is described as follows: Antibacterial activity (MIC). To be noted: Enterobacter cloacae, Agar.
Experiment [6] concerns Ps. aeruginosa NCTC 10662 10^-2. The experiment is described as follows: Antibacterial activity (MIC), 10^-2. As to conditions: Pseudomonas aeruginosa.
In experiment [7] the test system is S. marcescens US 32. Kind of experiment: Antibacterial activity (MIC). As to conditions: Serratia marcescens, US32, Agar.
For experiment [8], the system named is K. aerogenes A. The experiment is described as follows: Antibacterial activity (MIC). To be noted: Klebsiella aerogenes.
The test system of experiment [9] is E. coli ESS. Kind of experiment: Antibacterial activity (MIC). To be noted: Escherichia coli, Agar.
Experiment [10] relates to E. coli JT 4. The experiment is described as follows: Antibacterial activity (MIC). To be noted: Escherichia coli, JT4, Agar.
The test system of experiment [11] is E. coli JT 425. Kind of experiment: Antibacterial activity (MIC). To be noted: Escherichia coli, JT425, Agar.

As for `CO[C@@]1(NC(=O)C(c2ccc(OC(C)=O)c(OC(C)=O)c2)S(=O)(=O)O)C(=O)N2[C@@H](C(=O)O)C(C)(C)S[C@@H]21` (stereo partly drawn) [Example 3, Disodium 6,β-[R,S-2-(3,4-diacetoxyphenyl)-2-sulphoacetamido]-6,a-methoxypenicillanate], the minimum inhibitory concentration (MIC) in experiment [1] (NCTC10418, Agar) came to 2.5 µg/mL; in [1] (NCTC10418, Broth), 5 µg/mL; in experiment [2] it was 25 µg/mL; in experiment [3] it was 2.5 µg/mL; in [4] (Agar), 2.5 µg/mL; in experiment [4] (Broth), 5 µg/mL. The MIC in [5] came to 50 µg/mL; in experiment [6] (NCTC10662, Agar), 2.5 µg/mL; in experiment [6] (NCTC10662, Broth), 5 µg/mL; in [7], 25 µg/mL; in experiment [8] (Agar), 10 µg/mL; in experiment [8] (Broth) it was 25 µg/mL. Besides, the MIC in [9] was determined as 0.2 µg/mL; in experiment [10], 2.5 µg/mL; in [11], 2.5 µg/mL.
On to `CO[C@@]1(NC(=O)C(c2ccc(O)c(O)c2)S(=O)(=O)O)C(=O)N2[C@@H](C(=O)O)C(C)(C)S[C@@H]21` (stereo partly drawn) [Example 4, Disodium 6,β-[R,S-2-(3,4-dihydroxyphenyl)-2-sulphoacetamido]-6,a-methoxypenicillanate], for which the MIC in [1] (NCTC10418, Agar) was 5 µg/mL; in experiment [2] it was 25 µg/mL; in [3] it was 2.5 µg/mL; in [4] (Agar), 2.5 µg/mL; in [5], 50 µg/mL; in experiment [6] (NCTC10662, Agar) it was 5 µg/mL. The MIC in [7] is 25 µg/mL; in [8] (Agar), 5 µg/mL; in [9], 0.5 µg/mL; in [10] it was 5 µg/mL; in experiment [11], 5 µg/mL.
For `CO[C@@]1(NC(=O)[C@@H](c2ccc(OC(C)=O)c(OC(C)=O)c2)S(=O)(=O)O)C(=O)N2[C@@H](C(=O)O)C(C)(C)S[C@@H]21` [Example 8, Disodium 6,β-[R-2-(3,4-diacetoxyphenyl)-2-sulphoacetamido]-6,a-methoxypenicillanate], the MIC in [1] (NCTC10418, Agar) is 2.5 µg/mL; in experiment [1] (NCTC10418, Broth) it was 5 µg/mL; in [2] it was 10 µg/mL; in experiment [3], 0.5 µg/mL; in experiment [4] (Agar) it was 2.5 µg/mL; in [4] (Broth), 1 µg/mL. The MIC was found to be 25 µg/mL in experiment [5]; 0.5 µg/mL in experiment [6] (NCTC10662, Agar); 0.5 µg/mL in [6] (NCTC10662, Broth); 25 µg/mL in experiment [7]; 5 µg/mL in experiment [8] (Agar); 10 µg/mL in experiment [8] (Broth). Moreover, the MIC in experiment [9] was determined as 0.2 µg/mL; in experiment [10], 2.5 µg/mL; in experiment [11], 1 µg/mL.
As to `CO[C@@]1(NC(=O)[C@@H](c2ccc(O)c(O)c2)S(=O)(=O)O)C(=O)N2[C@@H](C(=O)O)C(C)(C)S[C@@H]21` [Example 9, Disodium 6,β-[R-2-(3,4-dihydroxyphenyl)-2-sulphoacetamido] -6,a-methoxypenicillanate], the MIC in experiment [1] (NCTC10418, Agar) amounted to 2.5 µg/mL; in experiment [2] it was 25 µg/mL; in experiment [3], 0.5 µg/mL; in experiment [4] (Agar) it was 2.5 µg/mL; in experiment [5], 50 µg/mL; in [6] (NCTC10662, Agar) it was 0.5 µg/mL. The minimum inhibitory concentration (MIC) turned out to be 25 µg/mL in [7]; 5 µg/mL in experiment [8] (Agar); 0.1 µg/mL in experiment [9]; 2.5 µg/mL in [10]; 1 µg/mL in experiment [11].

As a reminder, the MIC is the least concentration at which growth counts as inhibited.
